# Test results as given in patent EP0908457B1, “3-(1,2-benzisothiazol- and isoxazol-5-Y1)-2,4(1H,3H)-pyrimidinedione or thione and 3-(1,2-benzisothiazol- and isoxazol-5-y1)-4(3H)-pyrimidinone or thione herbicidal agents” (BASF AKTIENGESELLSCHAFT, priority 1997, dated 1999).
# Columns and labels:
# [1] = test system: Monochoria vaginalis, Presl.; test: Preemergence weed control under flooded paddy conditions, MOOVA (Monochoria); format: in vivo; settings: flooded paddy; for MOOVA: herbicidal effect rating 0-9, three to four weeks after treatment; on herbicidal effect rating, MOOVA: meaning of each grade not given here
# [2] = test system: Cyperus iria; test: Preemergence weed control under flooded paddy conditions, CYPIR (Rice Flatsedge); format: in vivo; settings: flooded paddy; for CYPIR: herbicidal effect rating 0-9, three to four weeks after treatment; on herbicidal effect rating, CYPIR: meaning of each grade not given here
# [3] = test system: Cyperus serotinus, Rottb.; test: Preemergence weed control under flooded paddy conditions, CYPSE (Flatsedge); format: in vivo; settings: for CYPSE: herbicidal effect rating 0-9, three to four weeks after treatment; on herbicidal effect rating, CYPSE: meaning of each grade not given here
# [4] = test system: Sagittaria pygmaea, L.; test: Preemergence weed control under flooded paddy conditions, SAGPY (Arrowhead (Pygmaea)); format: in vivo; settings: flooded paddy; for SAGPY: herbicidal effect rating 0-9, three to four weeks after treatment; on herbicidal effect rating, SAGPY: meaning of each grade not given here
# [5] = test system: Echinochloa oryzoides (Ard.) Fritsch.; test: Preemergence weed control under flooded paddy conditions, ECHORC (Watergrass (Calif.)); format: in vivo; settings: flooded paddy; for ECHORC: herbicidal effect rating 0-9, three to four weeks after treatment; on herbicidal effect rating, ECHORC: meaning of each grade not given here
# [6] = test system: Oryza sativa, (L.) Tebonnet; test: Rice tolerance to post-transplant applications under flooded paddy conditions (Example 187), ORYSAT (Rice, Tebonnet); settings: for ORYSAT: herbicidal effect rating 0-9, three to four weeks after treatment; on herbicidal effect rating ORYSAT: meaning of each grade not given here
# [7] = 0.0320 kg/ha, preemergence, rated three to four weeks after treatment
# [8] = 0.0620 kg/ha, preemergence, rated three to four weeks after treatment
# [9] = 0.1250 kg/ha, preemergence, rated three to four weeks after treatment
# [10] = 0.2500 kg/ha, preemergence, rated three to four weeks after treatment
# [11] = Rate 0.0320 kg/ha, preemergence, rated 3-4 weeks after treatment
# [12] = Rate 0.0620 kg/ha, preemergence, rated 3-4 weeks after treatment
# [13] = Rate 0.1250 kg/ha, preemergence, rated 3-4 weeks after treatment
# [14] = Rate 0.2500 kg/ha, preemergence, rated 3-4 weeks after treatment
# [15] = Rate 0.5000 kg/ha, preemergence, rated 3-4 weeks after treatment
# [16] = Rate 0.0320 kg/ha, preemergence, rated three to four weeks after treatment
# [17] = Rate 0.0620 kg/ha, preemergence, rated three to four weeks after treatment
# [18] = Rate 0.1250 kg/ha, preemergence, rated three to four weeks after treatment
# [19] = Rate 0.2500 kg/ha, preemergence, rated three to four weeks after treatment
# [20] = Rate 0.0320 kg/ha, rated three to four weeks after treatment
# [21] = Rate 0.0620 kg/ha, rated three to four weeks after treatment
# [22] = Rate 0.1250 kg/ha, rated three to four weeks after treatment
# [23] = Rate 0.2500 kg/ha, rated three to four weeks after treatment
# [24] = Rate 0.0320 kg/ha, preemergence weeds, rated three to four weeks after treatment
# [25] = Rate 0.0620 kg/ha, preemergence weeds, rated three to four weeks after treatment
# [26] = Rate 0.1250 kg/ha, preemergence weeds, rated three to four weeks after treatment
# [27] = Rate 0.2500 kg/ha, preemergence weeds, rated three to four weeks after treatment
# [28] = 0.0320 kg/ha, preemergence weeds
# [29] = 0.0620 kg/ha, preemergence weeds
# [30] = 0.1250 kg/ha, preemergence weeds
# [31] = 0.2500 kg/ha, preemergence weeds
structure (smiles),measurement,setting,value
"COC(=O)C(C)Oc1cc(Cl)c(C)cc1-c1nsc2ccc(-n3c(=O)cc(C(F)(F)F)n(C)c3=O)cc12 (stereo not drawn) [Example 492, Propionic acid, 2-{{5-chloro-2-{5-[3,6-dihydro-3-methyl-2,6-dioxo-4-(trifluoromethyl)-1(2H)-pyrimidinyl]-1,2-benzisothiazol-3-yl}-p-tolyl}oxy}-, methyl ester]",MOOVA herbicidal rating,[1]; [7],6.0
same,MOOVA herbicidal rating,[1]; [8],6.0
same,MOOVA herbicidal rating,[1]; [9],7.0
same,MOOVA herbicidal rating,[1]; [10],7.0
same,CYPIR herbicidal rating,[2]; [7],4.0
same,CYPIR herbicidal rating,[2]; [8],4.0
same,CYPIR herbicidal rating,[2]; [9],4.0
same,CYPIR herbicidal rating,[2]; [10],5.0
same,CYPSE herbicidal rating,[3]; [10],0.0
same,SAGPY herbicidal rating,[4]; [7],0.0
same,SAGPY herbicidal rating,[4]; [8],0.0
same,SAGPY herbicidal rating,[4]; [9],0.0
same,SAGPY herbicidal rating,[4]; [10],2.0
same,ECHORC herbicidal rating,[5]; [7],4.0
same,ECHORC herbicidal rating,[5]; [8],6.0
same,ECHORC herbicidal rating,[5]; [9],6.0
same,ECHORC herbicidal rating,[5]; [10],9.0
same,ORYSAT herbicidal rating (rice tolerance),"[6]; 0.0320 kg/ha, rated three to four weeks after treatment",2.0
same,ORYSAT herbicidal rating (rice tolerance),"[6]; 0.0620 kg/ha, rated three to four weeks after treatment",2.0
same,ORYSAT herbicidal rating (rice tolerance),"[6]; 0.1250 kg/ha, rated three to four weeks after treatment",2.0
same,ORYSAT herbicidal rating (rice tolerance),"[6]; 0.2500 kg/ha, rated three to four weeks after treatment",3.0
"Cn1c(C(F)(F)F)cc(=O)n(-c2ccc3snc(-c4ccccc4OCC(=O)C(C)(C)C)c3c2)c1=O [Example 549, 2,4(1H,3H)-Pyrimidinedione, 3-{3-[o-(3,3-dimethyl-2-oxobutoxy)phenyl)-1,2-benzisothiazol-5-yl}-1-methyl-6-(trifluoromethyl)-]","herbicidal effect rating, MOOVA",[1]; [11],9.0
same,"herbicidal effect rating, MOOVA",[1]; [12],9.0
same,"herbicidal effect rating, MOOVA",[1]; [13],9.0
same,"herbicidal effect rating, MOOVA",[1]; [14],9.0
same,"herbicidal effect rating, MOOVA",[1]; [15],9.0
same,"herbicidal effect rating, CYPIR",[2]; [11],7.0
same,"herbicidal effect rating, CYPIR",[2]; [12],9.0
same,"herbicidal effect rating, CYPIR",[2]; [13],9.0
same,"herbicidal effect rating, CYPIR",[2]; [14],9.0
same,"herbicidal effect rating, CYPIR",[2]; [15],9.0
same,"herbicidal effect rating, CYPSE",[3]; [11],0.0
same,"herbicidal effect rating, CYPSE",[3]; [12],0.0
same,"herbicidal effect rating, CYPSE",[3]; [13],2.0
same,"herbicidal effect rating, CYPSE",[3]; [14],9.0
same,"herbicidal effect rating, CYPSE",[3]; [15],9.0
same,"herbicidal effect rating, SAGPY",[4]; [11],0.0
same,"herbicidal effect rating, SAGPY",[4]; [12],0.0
same,"herbicidal effect rating, SAGPY",[4]; [13],4.0
same,"herbicidal effect rating, SAGPY",[4]; [14],4.0
same,"herbicidal effect rating, SAGPY",[4]; [15],0.0
same,"herbicidal effect rating, ECHORC",[5]; [11],3.0
same,"herbicidal effect rating, ECHORC",[5]; [12],3.6
same,"herbicidal effect rating, ECHORC",[5]; [13],5.1
same,"herbicidal effect rating, ECHORC",[5]; [14],9.0
same,"herbicidal effect rating, ECHORC",[5]; [15],9.0
same,herbicidal effect rating ORYSAT,"[6]; Rate 0.0320 kg/ha, rated 3-4 weeks after treatment",4.0
same,herbicidal effect rating ORYSAT,"[6]; Rate 0.0620 kg/ha, rated 3-4 weeks after treatment",4.0
same,herbicidal effect rating ORYSAT,"[6]; Rate 0.1250 kg/ha, rated 3-4 weeks after treatment",4.0
same,herbicidal effect rating ORYSAT,"[6]; Rate 0.2500 kg/ha, rated 3-4 weeks after treatment",4.0
same,herbicidal effect rating ORYSAT,"[6]; Rate 0.5000 kg/ha, rated 3-4 weeks after treatment",2.0
"Cc1ccc(OC(C)C(=O)NS(=O)(=O)C(C)C)c(-c2nsc3ccc(-n4c(=O)cc(C(F)(F)F)n(C)c4=O)cc23)c1 (stereo not drawn) [Example 568, Propionamide, 2-{{2-{5-[3,6-dihydro-3-methyl-2,6-dioxo-4-(trifluoromethyl)-1(2H)-pyrimidinyl]-1,2-benzisothiazol-3-yl}-p-tolyl}oxy}-N-(isopropylsulfonyl)-]","herbicidal effect rating, MOOVA",[1]; [16],0.0
same,"herbicidal effect rating, MOOVA",[1]; [17],9.0
same,"herbicidal effect rating, MOOVA",[1]; [18],9.0
same,"herbicidal effect rating, MOOVA",[1]; [19],9.0
same,"herbicidal effect rating, CYPIR",[2]; [16],0.0
same,"herbicidal effect rating, CYPIR",[2]; [17],0.0
same,"herbicidal effect rating, CYPIR",[2]; [18],5.0
same,"herbicidal effect rating, CYPIR",[2]; [19],7.0
same,"herbicidal effect rating, CYPSE",[3]; [16],0.0
same,"herbicidal effect rating, CYPSE",[3]; [17],0.0
same,"herbicidal effect rating, CYPSE",[3]; [18],0.0
same,"herbicidal effect rating, CYPSE",[3]; [19],0.0
same,"herbicidal effect rating, SAGPY",[4]; [16],0.0
same,"herbicidal effect rating, SAGPY",[4]; [17],0.0
same,"herbicidal effect rating, SAGPY",[4]; [18],0.0
same,"herbicidal effect rating, SAGPY",[4]; [19],0.0
same,"herbicidal effect rating, ECHORC",[5]; [16],0.0
same,"herbicidal effect rating, ECHORC",[5]; [17],3.0
same,"herbicidal effect rating, ECHORC",[5]; [18],5.0
same,"herbicidal effect rating, ECHORC",[5]; [19],6.0
same,herbicidal effect rating ORYSAT,[6]; [20],0.0
same,herbicidal effect rating ORYSAT,[6]; [21],0.0
same,herbicidal effect rating ORYSAT,[6]; [22],1.0
same,herbicidal effect rating ORYSAT,[6]; [23],3.0
"COC(=O)C(C)Oc1cccc(-c2nsc3ccc(-n4c(=O)cc(C(F)(F)F)n(C)c4=O)cc23)c1 (stereo not drawn) [Example 325, Propionic acid, 2-{m-{5-[3,6-dihydro-3-methyl-2,6-dioxo-4-(trifluoromethyl)-1-(2H)-pyrimidinyl]-1,2-benzisothiazol-3-yl}phenoxy}-, methyl ester]","herbicidal effect rating, MOOVA",[1]; [24],8.0
same,"herbicidal effect rating, MOOVA",[1]; [25],9.0
same,"herbicidal effect rating, MOOVA",[1]; [26],9.0
same,"herbicidal effect rating, MOOVA",[1]; [27],9.0
same,"herbicidal effect rating, CYPIR",[2]; [24],8.0
same,"herbicidal effect rating, CYPIR",[2]; [25],8.7
same,"herbicidal effect rating, CYPIR",[2]; [26],9.0
same,"herbicidal effect rating, CYPIR",[2]; [27],9.0
same,"herbicidal effect rating, CYPSE",[3]; [24],4.7
same,"herbicidal effect rating, CYPSE",[3]; [25],9.0
same,"herbicidal effect rating, CYPSE",[3]; [26],7.3
same,"herbicidal effect rating, CYPSE",[3]; [27],9.0
same,"herbicidal effect rating, SAGPY",[4]; [24],4.0
same,"herbicidal effect rating, SAGPY",[4]; [25],4.3
same,"herbicidal effect rating, SAGPY",[4]; [26],6.3
same,"herbicidal effect rating, SAGPY",[4]; [27],9.0
same,"herbicidal effect rating, ECHORC",[5]; [24],7.7
same,"herbicidal effect rating, ECHORC",[5]; [25],9.0
same,"herbicidal effect rating, ECHORC",[5]; [26],9.0
same,"herbicidal effect rating, ECHORC",[5]; [27],9.0
same,herbicidal effect rating ORYSAT,[6]; [20],2.7
same,herbicidal effect rating ORYSAT,[6]; [21],3.0
same,herbicidal effect rating ORYSAT,[6]; [22],3.7
same,herbicidal effect rating ORYSAT,[6]; [23],4.0
"Cn1c(C(F)(F)F)cc(=O)n(-c2ccc3snc(C(=O)NS(=O)(=O)Cc4ccc(C(C)(C)C)cc4)c3c2)c1=O [Example 405, 1,2-Benzisothiazole-3-carboxamide, N-[(p-tert-butylbenzyl)sulfonyl]-5-[3,6-dihydro-3-methyl-2,6-dioxo-4-(trifluoromethyl)-1(2H)-pyrimidinyl]-]",MOOVA,[1]; [28],6.0
same,MOOVA,[1]; [29],6.0
same,MOOVA,[1]; [30],7.0
same,MOOVA,[1]; [31],7.0
same,CYPIR,[2]; [28],4.0
same,CYPIR,[2]; [29],4.0
same,CYPIR,[2]; [30],7.0
same,CYPIR,[2]; [31],8.0
same,CYPSE,[3]; [28],0.0
same,CYPSE,[3]; [29],0.0
same,CYPSE,[3]; [30],0.0
same,CYPSE,[3]; [31],0.0
same,SAGPY,[4]; [28],0.0
same,SAGPY,[4]; [29],0.0
same,SAGPY,[4]; [30],5.0
same,SAGPY,[4]; [31],6.0
same,ECHORC,[5]; [28],7.0
same,ECHORC,[5]; [29],7.0
same,ECHORC,[5]; [30],9.0
same,ECHORC,[5]; [31],9.0
same,ORYSAT,[6]; 0.0320 kg/ha,0.0
same,ORYSAT,[6]; 0.0620 kg/ha,0.0
same,ORYSAT,[6]; 0.1250 kg/ha,2.0
same,ORYSAT,[6]; 0.2500 kg/ha,2.0
